{"source": "patent US5648369A", "about": "“Aminoalkylpyridine compounds which are useful as anitconvulsant drugs, excitatory amino acid inhibitors and NMDA sigma receptor antagonists” (priority 1991, dated 1997)", "key": {"[1]": {"biological_target": "NMDA", "test": "Radioligand binding, NMDA, [3H]CGS19755", "from_the_text": "(§1) EAAs are known to play important roles in excitatory neurotransmission in partial seizures as discussed earlier. […] Thus, several aminoalkylpyridines of this invention are effective antagonists of NMDA-receptor mediated EAA neurotransmission and function as noncompetitive NMDA antagonists and thus can be used to advantage in epilepsy, stroke and Alzheimer's disease.\n(§2) EAAs are known to play important roles in excitatory transmission in partial seizures as discussed earlier. In general, antieptileptic drugs effective against MES seizures alter ionic transport across excitable membranes [Porter, R. J., and Pitlick, W. H., In \"Basic and Clinical Pharmacology\", 4th Edn., B. G. Katzung, Ed., Appleton and Lange, CA 1989, pp. 287-303]. Based on this rationale, the aminoalkylpyridines may be expected to attenuate EAA neurotransmission. Indeed, evaluation of potential displacement activity of #2 at all inhibitory and excitatory amino acid receptor types and subtypes using appropriate radioligands, indicate that this aminoalkylpyridine inhibits at 10 μM concentration, 49% of the binding of [^3 H]DTG, a ligand highly specific for the σ (sigma) receptor population of the PCP receptors on the NMDA receptor-ionophore complex (Table 6).\n(§3) Values are expressed as the percent inhibition of specific binding and […]"}, "[2]": {"biological_target": "Benzodiazepine", "test": "Radioligand binding, Benzodiazepine", "from_the_text": "as §1, §2, §3"}, "[3]": {"test_system": "MES and scMet seizures", "test": "Anticonvulsant screening, ASP classification (MES and scMet tests) in mice, i.p.", "assay_type": "in vivo, mouse", "details": "ip; i.p. mouse; read-out: ASP Group Classification"}, "[4]": {"test_system": "subcutaneous pentylenetetrazol seizures", "test": "Subcutaneous pentylenetetrazol (Metrazole) seizure threshold test (scMet), mice, i.p.", "assay_type": "in vivo", "details": "Mus musculus, ip", "experimental": "(§4) The Subcutaneous Pentylenetetrazol (Metrazole) Seizure Threshold Test (scMet): A 0.5% solution of 85 mg/kg of pentylenetetrazol is administered subcutaneously in the posterior midline. The animal is observed for 30 minutes."}, "[5]": {"test": "Rotorod ataxia test (neurotoxicity), mice, i.p.", "details": "mouse, in vivo, ip", "experimental": "Neurotoxicity is evaluated in mice by the rotorod ataxia test. The animal is placed on a wooden rod of 11/8\" diameter rotating at 6 rpm. Normal mice can remain on a rod rotating at this speed indefinitely."}, "[6]": {"test_system": "subcutaneous pentylenetetrazol seizures", "test": "Subcutaneous pentylenetetrazol seizure threshold test (scMet), rat, p.o.", "assay_type": "in vivo, rat (Sprague-Dawley)", "details": "po", "experimental": "as §4"}, "[7]": {"test": "in vivo", "set-up": "species or system rat (Sprague-Dawley)", "details": "rat, po", "from_the_text": "Inability to do so rapidly indicates a neurologic deficit."}, "[8]": {"test_system": "Adenosine", "test": "Radioligand binding, Adenosine", "from_the_text": "as §1, §2, §3"}, "[9]": {"biological_target": "Glycine (Homo sapiens, UniProt Q05586)", "test": "Radioligand binding, Glycine (excitatory), [3H]glycine", "from_the_text": "(§5) EAAs are known to play important roles in excitatory neurotransmission in partial seizures as discussed earlier.\n(§6) EAAs are known to play important roles in excitatory transmission in partial seizures as discussed earlier."}, "[10]": {"test_system": "Kainate", "test": "Radioligand binding, Kainate, [3H]KA", "from_the_text": "as §1, §2, §3"}, "[11]": {"test_system": "MK-801", "test": "Radioligand binding, MK-801, [3H]MK-801", "from_the_text": "as §1, §2, §3"}, "[12]": {"test_system": "PCF", "test": "Radioligand binding, PCP, [3H]TCP", "from_the_text": "as §1, §2, §3"}, "[13]": {"test_system": "Quisqualate", "test": "Radioligand binding, Quisqualate, [3H]AMPA", "from_the_text": "as §1, §2, §3"}, "[14]": {"test_system": "Sigma", "test": "Radioligand binding, Sigma, [3H]DTG", "from_the_text": "as §5, §6"}, "[15]": {"test_system": "GABAA", "test": "Radioligand binding, GABAA", "from_the_text": "as §5, §6"}, "[16]": {"biological_target": "GABAe (Homo sapiens, UniProt Q9UBS5)", "sequence (Q9UBS5 15-961 limits assumed)": "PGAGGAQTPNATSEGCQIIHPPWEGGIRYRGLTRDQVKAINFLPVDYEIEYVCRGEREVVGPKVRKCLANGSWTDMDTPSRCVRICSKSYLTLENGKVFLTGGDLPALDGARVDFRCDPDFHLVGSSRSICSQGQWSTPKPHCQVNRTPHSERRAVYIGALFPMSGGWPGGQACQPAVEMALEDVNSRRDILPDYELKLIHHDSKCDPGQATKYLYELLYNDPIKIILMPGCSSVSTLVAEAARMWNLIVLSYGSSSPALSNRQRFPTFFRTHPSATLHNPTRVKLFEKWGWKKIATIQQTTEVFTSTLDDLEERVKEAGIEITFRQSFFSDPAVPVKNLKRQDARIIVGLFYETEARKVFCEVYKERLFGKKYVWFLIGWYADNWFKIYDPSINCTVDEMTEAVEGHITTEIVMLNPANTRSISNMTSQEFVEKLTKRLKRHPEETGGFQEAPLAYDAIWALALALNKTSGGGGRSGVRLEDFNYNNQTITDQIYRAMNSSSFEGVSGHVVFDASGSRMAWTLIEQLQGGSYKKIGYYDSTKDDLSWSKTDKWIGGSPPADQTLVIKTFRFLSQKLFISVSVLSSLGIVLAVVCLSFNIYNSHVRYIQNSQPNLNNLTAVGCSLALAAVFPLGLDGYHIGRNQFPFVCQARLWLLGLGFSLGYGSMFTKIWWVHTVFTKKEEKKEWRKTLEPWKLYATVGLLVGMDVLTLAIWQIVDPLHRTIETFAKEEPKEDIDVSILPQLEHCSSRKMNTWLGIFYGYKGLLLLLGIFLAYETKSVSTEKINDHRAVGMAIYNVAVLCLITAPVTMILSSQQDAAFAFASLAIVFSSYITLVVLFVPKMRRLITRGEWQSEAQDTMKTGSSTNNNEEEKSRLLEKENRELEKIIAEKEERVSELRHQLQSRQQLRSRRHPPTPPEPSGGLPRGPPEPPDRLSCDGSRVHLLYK", "sequence (O75899 42-941 partner)": "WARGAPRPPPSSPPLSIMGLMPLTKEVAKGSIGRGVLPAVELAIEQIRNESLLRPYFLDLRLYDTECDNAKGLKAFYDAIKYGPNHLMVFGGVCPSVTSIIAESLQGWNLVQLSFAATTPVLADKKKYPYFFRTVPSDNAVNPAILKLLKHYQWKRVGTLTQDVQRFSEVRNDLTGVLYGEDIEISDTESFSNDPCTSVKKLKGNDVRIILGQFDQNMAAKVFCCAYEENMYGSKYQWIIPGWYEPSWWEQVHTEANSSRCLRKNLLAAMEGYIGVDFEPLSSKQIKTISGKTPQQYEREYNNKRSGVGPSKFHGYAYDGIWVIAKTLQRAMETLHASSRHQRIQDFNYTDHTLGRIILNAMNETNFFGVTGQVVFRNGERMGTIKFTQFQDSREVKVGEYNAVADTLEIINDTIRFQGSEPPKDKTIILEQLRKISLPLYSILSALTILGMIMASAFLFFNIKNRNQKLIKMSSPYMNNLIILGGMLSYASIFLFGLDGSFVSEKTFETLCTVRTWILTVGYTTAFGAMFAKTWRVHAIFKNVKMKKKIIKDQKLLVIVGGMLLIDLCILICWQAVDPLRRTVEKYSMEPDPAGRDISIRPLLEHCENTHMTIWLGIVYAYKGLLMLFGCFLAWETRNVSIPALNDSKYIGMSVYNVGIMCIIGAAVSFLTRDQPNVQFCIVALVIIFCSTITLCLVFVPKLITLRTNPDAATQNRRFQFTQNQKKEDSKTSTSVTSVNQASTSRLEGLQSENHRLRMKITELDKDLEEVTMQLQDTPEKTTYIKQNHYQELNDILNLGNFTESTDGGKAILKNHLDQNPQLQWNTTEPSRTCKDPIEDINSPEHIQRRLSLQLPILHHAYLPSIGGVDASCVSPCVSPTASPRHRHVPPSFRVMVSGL", "test": "Radioligand binding, GABAe", "from_the_text": "as §5, §6"}, "[17]": {"biological_target": "Glycine (Homo sapiens, UniProt P23415)", "sequence (P23415 29-457)": "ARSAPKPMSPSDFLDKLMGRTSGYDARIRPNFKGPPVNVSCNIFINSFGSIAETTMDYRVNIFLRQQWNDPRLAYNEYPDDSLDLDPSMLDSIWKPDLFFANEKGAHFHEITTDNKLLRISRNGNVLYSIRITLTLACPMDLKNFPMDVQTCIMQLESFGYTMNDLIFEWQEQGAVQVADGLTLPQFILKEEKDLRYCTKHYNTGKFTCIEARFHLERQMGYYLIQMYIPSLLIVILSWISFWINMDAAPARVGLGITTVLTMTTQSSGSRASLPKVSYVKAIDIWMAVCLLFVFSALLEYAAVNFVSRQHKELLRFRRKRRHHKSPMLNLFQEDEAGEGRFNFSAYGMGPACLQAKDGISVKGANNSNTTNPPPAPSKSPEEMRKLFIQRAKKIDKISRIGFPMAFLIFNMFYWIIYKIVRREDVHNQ", "sequence (P48167 23-497 partner)": "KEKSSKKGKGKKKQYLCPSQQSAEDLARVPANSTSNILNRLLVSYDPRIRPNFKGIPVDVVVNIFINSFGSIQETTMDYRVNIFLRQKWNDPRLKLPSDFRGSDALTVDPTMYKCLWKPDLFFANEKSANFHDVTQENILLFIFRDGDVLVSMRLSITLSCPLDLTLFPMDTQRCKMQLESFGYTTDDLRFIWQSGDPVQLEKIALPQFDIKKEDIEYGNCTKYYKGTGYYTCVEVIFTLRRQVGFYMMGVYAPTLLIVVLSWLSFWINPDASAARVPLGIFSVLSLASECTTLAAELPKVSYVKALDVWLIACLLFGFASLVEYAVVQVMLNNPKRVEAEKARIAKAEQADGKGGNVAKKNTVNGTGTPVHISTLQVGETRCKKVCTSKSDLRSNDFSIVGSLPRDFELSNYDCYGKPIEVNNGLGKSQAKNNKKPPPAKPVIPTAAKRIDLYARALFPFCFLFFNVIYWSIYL", "test": "Radioligand binding, Glycine (inhibitory)", "from_the_text": "as §5, §6"}, "[18]": {"test_system": "endogenous L-glutamate release", "test": "Ca2+ dependent, K+ evoked release of endogenous L-glutamate in cerebrocortical slices", "assay_type": "cell-based, guinea pig", "details": "Cavia porcellus; for activity at 50 µM / activity at 100 µM: means ± SEM, n = 4"}, "[19]": {"test_system": "maximal electroshock seizures", "test": "Maximal electroshock seizure (MES) test in the rat, p.o.", "quoted_text": "(§7) The Maximal Electroshock Seizure Test (MES): Maximal electroshock seizures are elicited with a 60 Hz alternating current of 50 mA intensity in mice and about 150 mA in rats (5-7 times that necessary to elicit minimal electroshock seizures), delivered for 0.2 sec via corneal electrodes. A drop of 0.9% saline is instilled in the eye prior to application of the electrodes in order to prevent the death of the animal. Abolition of the hind limb tonic extension component of the seizure is defined as protection and results are expressed as number of animals protected/number of animals tested.\nThis species will be subject of the complete anticonvulsant quantification test evaluation as described above, but after oral (gavage) administration of the candidate compound.\nNeurological deficit in rats is examined by the positional sense test and gait and stance test. […] Inability to do so rapidly indicates a neurologic deficit. In the gait and stance test, a neurologic deficit is indicated by a circular or zigzag gait, ataxia, abnormal spread of the legs, abnormal body posture, tremor, hyperactivity, lack of exploratory behavior, somnolence, stupor, or catalepsy."}, "[20]": {"test_system": "maximal electroshock seizures", "test": "Maximal electroshock seizure (MES) test, anticonvulsant quantification in mice, i.p.", "method": "Screening Methodology to Determine Anticonvulsant Activity: In mice, i.p.: All compounds are solubilized in 0.5% methylcellulose. […] The compounds are administered intraperitoneally in a volume of 0.01 ml/gm to male Carworth Farms #1 mice weighing about 20 gm. All compounds are tested at least at three dose levels (30, 100 an 300 mg/kg) at 30 minutes and 4 hours after their administration.\nas §7\nAnticonvulsant Quantification in Mice, i.p.: The ED50 values are determined in the MES, scMet and rotorod ataxia test."}, "[21]": {"details": "10^-7 M, read-out: Percent Inhibition of specific binding (Average; N = 2)"}}}
{"compound": "O=C(O)C1CN(CCCP(=O)(O)O)CCN1", "note": "(stereo not drawn) [CPP, reference compound]", "values": [{"measurement": "Ki", "setting": "[1]; reference compound, [3H]CGS19755", "result": 359, "unit": "nM"}]}
{"compound": "O=C1CN=C(c2ccccc2Cl)c2cc([N+](=O)[O-])ccc2N1", "note": "[Clonazepam, reference compound]", "values": [{"measurement": "Ki", "setting": "[2]; reference compound, Benzodiazepine", "result": 3.4, "unit": "nM"}]}
{"compound": "CC(Nc1ccc(Cl)cc1)c1ccncc1", "note": "(stereo not drawn) [Compound 2, 1-(4-Chloroanilino)-1-(4-pyridyl)-ethan]", "values": [{"measurement": "minimal effective dose", "setting": "[3]", "result": "< 100", "unit": "mg/kg"}, {"measurement": "ED50", "setting": "[4]", "result": "< 150", "unit": "mg/kg"}, {"measurement": "TD50", "setting": "[5]", "result": 160, "unit": "mg/kg"}, {"measurement": "ED50", "setting": "[6]", "result": "> 250", "unit": "mg/kg"}, {"measurement": "TD50", "setting": "[7]", "result": "> 470", "unit": "mg/kg"}, {"measurement": "Percent Inhibition of specific binding (Average; N = 2)", "setting": "[8]; 1.0^-5 M", "result": -15.9, "unit": "%"}, {"measurement": "Percent Inhibition of specific binding (Average; N = 2)", "setting": "[8]; 10^-7 M", "result": -15.2, "unit": "%"}, {"measurement": "Percent Inhibition of specific binding (Average; N = 2)", "setting": "[9]; 1.0^-5 M", "result": -4.0, "unit": "%"}, {"measurement": "inhibition at 0.1 µM", "setting": "[9]; [21]", "result": 8.7, "unit": "%"}, {"measurement": "Percent Inhibition of specific binding (Average; N = 2)", "setting": "[10]; 1.0^-5 M", "result": -7.3, "unit": "%"}, {"measurement": "Percent Inhibition of specific binding (Average; N = 2)", "setting": "[10]; 10^-7 M", "result": -3.7, "unit": "%"}, {"measurement": "activity at the [3H]MK-801-binding receptor sites (in words)", "setting": "[11]", "result": "no activity"}, {"measurement": "Percent Inhibition of specific binding (Average; N = 2)", "setting": "[11]; 1.0^-5 M", "result": 17.0, "unit": "%"}, {"measurement": "Percent Inhibition of specific binding (Average; N = 2)", "setting": "[11]; 10^-7 M", "result": 13.5, "unit": "%"}, {"measurement": "Percent Inhibition of specific binding (Average; N = 2)", "setting": "[1]; 1.0^-5 M", "result": -6.6, "unit": "%"}, {"measurement": "Percent Inhibition of specific binding (Average; N = 2)", "setting": "[1]; 10^-7 M", "result": 3.5, "unit": "%"}, {"measurement": "activity at the [3H]TCP-binding receptor sites / PCP receptors (in words)", "setting": "[12]", "result": "no activity"}, {"measurement": "Percent Inhibition of specific binding (Average; N = 2)", "setting": "[12]; 1.0^-5 M", "result": -1.8, "unit": "%"}, {"measurement": "Percent Inhibition of specific binding (Average; N = 2)", "setting": "[12]; 10^-7 M", "result": -3.8, "unit": "%"}, {"measurement": "Percent Inhibition of specific binding (Average; N = 2)", "setting": "[13]; 1.0^-5 M", "result": 4.3, "unit": "%"}, {"measurement": "Percent Inhibition of specific binding (Average; N = 2)", "setting": "[13]; 10^-7 M", "result": 4.2, "unit": "%"}, {"measurement": "inhibition of the binding of [3H]DTG", "setting": "[14]; 10 μM concentration", "result": 49, "unit": "%"}, {"measurement": "Percent Inhibition of specific binding (Average; N = 2)", "setting": "[14]; 1.0^-5 M", "result": 49.1, "unit": "%"}, {"measurement": "Percent Inhibition of specific binding (Average; N = 2)", "setting": "[14]; 10^-7 M", "result": 12.9, "unit": "%"}, {"measurement": "inhibition of the binding of [3H]DTG (in words)", "setting": "[14]; σ receptor population", "result": "inhibit selectively"}, {"measurement": "Percent Inhibition of specific binding (Average; N = 2)", "setting": "[2]; 1.0^-5 M", "result": -7.8, "unit": "%"}, {"measurement": "Percent Inhibition of specific binding (Average; N = 2)", "setting": "[2]; 10^-7 M", "result": -4.7, "unit": "%"}, {"measurement": "Percent Inhibition of specific binding (Average; N = 2)", "setting": "[15]; 1.0^-5 M", "result": 1.2, "unit": "%"}, {"measurement": "Percent Inhibition of specific binding (Average; N = 2)", "setting": "[15]; 10^-7 M", "result": 6.5, "unit": "%"}, {"measurement": "Percent Inhibition of specific binding (Average; N = 2)", "setting": "[16]; 1.0^-5 M", "result": -4.9, "unit": "%"}, {"measurement": "inhibition at 0.1 µM", "setting": "[16]; [21]", "result": 3.6, "unit": "%"}, {"measurement": "Percent Inhibition of specific binding (Average; N = 2)", "setting": "[17]; 1.0^-5 M", "result": -1.4, "unit": "%"}, {"measurement": "inhibition at 0.1 µM", "setting": "[17]; [21]", "result": -1.8, "unit": "%"}, {"measurement": "activity at 50 µM", "setting": "[18]; 50 μM (K+), 30 mM K+, P < 0.001 vs K+ alone", "result": "121 ± 8", "unit": "%"}, {"measurement": "activity at 50 µM", "setting": "[18]; 50 μM (basal)", "result": "101 ± 6", "unit": "%"}, {"measurement": "activity at 100 µM", "setting": "[18]; 100 μM (K+), 30 mM K+, P < 0.001 vs K+ alone", "result": "114 ± 4", "unit": "%"}, {"measurement": "activity at 100 µM", "setting": "[18]; 100 μM (basal)", "result": "99 ± 9", "unit": "%"}, {"measurement": "inhibition at 50 µM", "setting": "[18]; 50 μM", "result": 74, "unit": "%"}, {"measurement": "inhibition at 100 µM", "setting": "[18]; 100 μM", "result": 80, "unit": "%"}, {"measurement": "ED50", "setting": "[19]; Rattus norvegicus, po, read-out: ED50 MES", "result": 22.9, "unit": "mg/kg"}, {"measurement": "responders at 50 mg/kg", "setting": "[19]; Rattus norvegicus, po, read-out: Percent protection at 50 mg/kg dose, p.o., in the MES Test in the rat", "result": "75 to 100", "unit": "%"}, {"measurement": "P.I. MES (TD50/ED50)", "setting": "[19]; rat, p.o.", "result": "> 20.53"}, {"measurement": "ED50", "setting": "[20]; Mus musculus, ip, read-out: ED50 MES", "result": 53.7, "unit": "mg/kg"}, {"measurement": "P.I. MES (TD50/ED50)", "setting": "[20]; mice, i.p.", "result": 2.98}]}
{"compound": "NCc1cc(=O)[nH]o1", "note": "[Muscimol, reference compound]", "values": [{"measurement": "Ki", "setting": "[15]; reference compound, GABAA", "result": 2.8, "unit": "nM"}]}
{"compound": "O=C1C[C@@H]2OCC=C3CN4CC[C@]56c7ccccc7N1[C@H]5[C@H]2[C@H]3C[C@H]46", "note": "[Strychnine Nitrate, reference compound]", "values": [{"measurement": "Ki", "setting": "[17]", "result": 33.5, "unit": "nM"}]}
